From BigSolDB 2.1

CN(C/C=C/C#CC(C)(C)C)Cc1cccc2ccccc12.Cl
solubility (mole fraction)
Conditions	in ethanol	in ethyl acetate	in methanol	in n-propanol
278.15 K	0.0187	0.0022	0.0398	0.0187
280.65 K	0.0197	0.00255	0.0411	0.0193
283.15 K	0.0207	0.00304	0.0424	0.02
285.65 K	0.0217	0.0036	0.0439	0.0206
288.15 K	0.0229	0.00417	0.0453	0.0214
290.65 K	0.0241	0.00482	0.047	0.0221
293.15 K	0.0254	0.00557	0.0486	0.0228
295.65 K	0.0266	0.00626	0.0502	0.0237
298.15 K	0.0279	0.00715	0.0518	0.0245
300.65 K	0.0293	0.00821	0.0536	0.0254
303.15 K	0.0309	0.00919	0.0554	0.0262
305.65 K	0.0326	0.0105	0.0572	0.0271
308.15 K	0.0342	0.0119	0.059	0.028
310.65 K	0.036	0.0133	0.061	0.0291
313.15 K	0.0379	0.015	0.063	0.0301
